Here are results for four compounds from PMC9401600 (Chemmedchem, 2022).

One may read the remaining activity as what remains of the control signal, in per cent. A higher remaining activity goes with a small loss of activity. What is called IC50 is the point on the concentration scale where inhibition reaches its midpoint.

One assay concerns C. elegans strain CL2006. The assay can be described thus: Locomotion assay (motor index). The assay is classed as in vivo, Caenorhabditis elegans. The following applies: CL2006 worms, 0.001-1 μM, chronic treatment, compared with UNC0638. Here is the method:
One of the best‐characterized transgenic AD strains in C. elegans is the CL2006 strain, which contains the Punc‐54::Aβ1–42 transgene, showing a progressive adult‐onset paralysis. Then, to establish a dose‐response profile, the pharmacological impact of G9a inhibition was evaluated in a locomotion assay with this C. elegans strain. We performed a motility assay where animals were placed in the center of a seeded plate and allowed to explore the environment freely. […] N2 (WT), and CL2006 strain were treated with dimethyl sulfoxide (DMSO) 1 %, used as a vehicle, which should not cause a relevant locomotor defective phenotype. […] The motor index for each condition was calculated using the motor performance of Bristol (N2) (WT, 100 %) and the transgenic AD strain (CL2006, 0 %) animals as reference.
Locomotion assay of G9a inhibitors was assessed to obtain dose‐response profile, evaluating the impact of the pharmacology treatment in motor dysfunction presented by the transgenic strains CL2006. Nematodes were synchronized by alkaline hypochlorite treatment, and drug assay was performed as described above, except for the OP50 bacteria OD595 adjusted to 0.9, and the duration of the treatment was 5 days. N2 (WT), and the transgenic strain CL2006 were treated in liquid media for 4 days at 20 °C and 180 rpm, starting at the L1 stage. On day 5 of age, worms were transferred from the 96‐well plates onto an unseeded NGM plate for 45 minutes before starting the trial, allowing the plates to dry and worms. Locomotion assays were performed in 30 mm NGM plates, in which the whole surface of the plate was covered by OP50. 5 to 10 adult nematodes were placed in the center of a circle (with 1 cm of diameter) in the seeded 30 mm NGM plates. After 1 min, the number of animals remaining inside the circle was scored as a locomotor defect. Motor behavior assays were run in triplicates (n=3), with a total of at least 100 animals tested per compound concentration. Motor index establishes a score where treated animals showing the same motor defect as CL2006 have an index of 0 %. […] All the results shown in the figures are calculated using the following formula: Motorindex(%)=(LDCL2006vehicle-LDCL2006drug)/(LDCL2006vehicle-LDWTvehicle)×100 LD=locomotiondefective

In the next assay the target is T1, G9a (Homo sapiens, UniProt Q96KQ7).
T1 construct: purchased BPS Bioscience 52051
T1 sequence (Q96KQ7 1-1210): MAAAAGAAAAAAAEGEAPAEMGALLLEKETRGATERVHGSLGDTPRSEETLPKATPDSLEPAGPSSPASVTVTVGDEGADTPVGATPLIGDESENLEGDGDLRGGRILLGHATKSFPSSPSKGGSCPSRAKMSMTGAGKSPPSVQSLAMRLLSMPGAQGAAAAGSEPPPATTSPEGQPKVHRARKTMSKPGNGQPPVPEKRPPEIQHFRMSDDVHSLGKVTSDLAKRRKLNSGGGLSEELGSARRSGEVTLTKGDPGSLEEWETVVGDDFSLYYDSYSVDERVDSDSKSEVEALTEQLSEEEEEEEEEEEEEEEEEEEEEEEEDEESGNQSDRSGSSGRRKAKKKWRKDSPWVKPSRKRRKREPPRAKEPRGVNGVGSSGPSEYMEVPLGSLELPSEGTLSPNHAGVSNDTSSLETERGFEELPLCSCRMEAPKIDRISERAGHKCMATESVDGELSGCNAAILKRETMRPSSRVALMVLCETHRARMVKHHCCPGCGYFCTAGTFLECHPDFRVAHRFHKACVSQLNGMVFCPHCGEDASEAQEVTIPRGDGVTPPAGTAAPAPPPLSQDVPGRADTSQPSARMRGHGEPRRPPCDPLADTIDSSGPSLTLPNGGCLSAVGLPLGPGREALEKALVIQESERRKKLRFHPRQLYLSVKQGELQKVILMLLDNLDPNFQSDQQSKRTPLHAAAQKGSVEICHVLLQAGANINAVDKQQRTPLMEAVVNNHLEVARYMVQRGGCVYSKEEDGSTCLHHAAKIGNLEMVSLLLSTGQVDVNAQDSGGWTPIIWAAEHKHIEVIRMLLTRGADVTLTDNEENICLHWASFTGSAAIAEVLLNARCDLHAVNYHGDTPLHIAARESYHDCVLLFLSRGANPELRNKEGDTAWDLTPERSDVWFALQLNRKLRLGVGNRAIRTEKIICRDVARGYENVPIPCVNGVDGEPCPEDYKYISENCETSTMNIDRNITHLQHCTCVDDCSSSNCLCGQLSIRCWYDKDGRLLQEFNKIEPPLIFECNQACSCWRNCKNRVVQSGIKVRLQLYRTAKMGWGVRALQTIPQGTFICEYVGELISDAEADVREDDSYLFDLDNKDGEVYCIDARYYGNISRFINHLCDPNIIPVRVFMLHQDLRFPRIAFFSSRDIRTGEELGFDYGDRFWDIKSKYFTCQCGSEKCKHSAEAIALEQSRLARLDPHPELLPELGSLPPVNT
Nature of the assay: G9a Homogeneous Assay Kit (AlphaLISA) G9a inhibition. As to conditions: for IC50: AlphaLISA, 100 μM SAM and peptide substrate. The assay is classed as biochemical. For orientation: Bead proximity is the source of the signal in Alpha formats.

As for `CC(C)c1nccn1CCCNCc1cc(CN2CCCC2)cs1` [C], the “motor index dose‐response profile (in words)” value in the assay on C. elegans strain CL2006 was “ameliorating the paralysis presented by CL2006”. At G9a (first data set of Table S2), the remaining activity at 0.0001 µM came out at 32.8%, the remaining activity at 0.001 µM amounted to 22.2%, the remaining activity at 0.01 µM amounted to 15.1% and the remaining activity at 0.1 µM stood at 12%. On G9a (first data set of Table S2), this compound yielded a remaining activity at 1 µM of 11.5%, a remaining activity at 10 µM of 10.9% and a remaining activity at 50 µM of 10.7%. At G9a (second data set of Table S2), the remaining activity at 0.0001 µM came to 32.7%, the remaining activity at 0.001 µM came to 23.9%, the remaining activity at 0.01 µM turned out to be 19.5% and the remaining activity at 0.1 µM was 12.6%. At G9a (second data set of Table S2), this compound yielded a remaining activity at 1 µM of 12.4%, a remaining activity at 10 µM of 11.3% and a remaining activity at 50 µM of 10.9%. In addition, at G9a (third data set of Table S2), the remaining activity at 0.0001 µM came to 32.8%, the remaining activity at 0.001 µM came to 23.1%, the remaining activity at 0.01 µM amounted to 17.3% and the remaining activity at 0.1 µM was 12.3%. In addition, at G9a (third data set of Table S2), the remaining activity at 1 µM was 12%, the remaining activity at 10 µM stood at 11.1% and the remaining activity at 50 µM was 10.8%. Half-maximal inhibition at G9a (IC50) required 1.7 nM.
Consider `c1ccc(OCCn2ccnc2)c(CN2CCN(c3ccncc3)CC2)c1` [Compound B], for which the “motor index dose‐response profile (in words)” value in the assay on C. elegans strain CL2006 is on record as “did not show an improved performance against the motor indexes of the control UNC0638”. At G9a (first data set of Table S2), the remaining activity at 0.0001 µM was 9.3%, the remaining activity at 0.001 µM was 8.7%, the remaining activity at 0.01 µM was found to be 3.5% and the remaining activity at 0.1 µM is 2.1%. At G9a (first data set of Table S2), this compound showed a remaining activity at 1 µM of 1.2%, a remaining activity at 10 µM of 0.9% and a remaining activity at 50 µM of 0.2%. At G9a (second data set of Table S2), the remaining activity at 0.0001 µM was 10.8%, the remaining activity at 0.001 µM worked out at 11.6%, the remaining activity at 0.01 µM amounted to 7.3% and the remaining activity at 0.1 µM amounted to 5.3%. Besides, at G9a (second data set of Table S2), the remaining activity at 1 µM is 3.8%, the remaining activity at 10 µM stood at 1.6% and the remaining activity at 50 µM turned out to be 0.6%. On G9a (third data set of Table S2), this compound had a remaining activity at 0.0001 µM of 10%, a remaining activity at 0.001 µM of 10.1%, a remaining activity at 0.01 µM of 5.4% and a remaining activity at 0.1 µM of 3.7%. On G9a (third data set of Table S2), this compound showed a remaining activity at 1 µM of 2.5%, a remaining activity at 10 µM of 1.2% and a remaining activity at 50 µM of 0.4%. Further, the IC50 at G9a is 9.4 nM.
`CCc1nccn1CCC(=O)Nc1cccc(NC(=O)CN(C)C)c1` [G]: in the assay on C. elegans strain CL2006, the “motor index dose‐response profile (in words)” value is “motor index decreased progressively as the dose decreased”. Moreover, on G9a (first data set of Table S2), the remaining activity at 0.0001 µM came to 29.6%, the remaining activity at 0.001 µM was found to be 26%, the remaining activity at 0.01 µM is 17.6% and the remaining activity at 0.1 µM came out at 11.4%. Besides, at G9a (first data set of Table S2), the remaining activity at 1 µM is 8.7%, the remaining activity at 10 µM worked out at 8.5% and the remaining activity at 50 µM turned out to be 7.7%. In addition, on G9a (second data set of Table S2), the remaining activity at 0.0001 µM stood at 33.7%, the remaining activity at 0.001 µM was 28.7%, the remaining activity at 0.01 µM worked out at 16.1% and the remaining activity at 0.1 µM stood at 12.3%. For the same compound, at G9a (second data set of Table S2), the remaining activity at 1 µM turned out to be 10.3%, the remaining activity at 10 µM amounted to 9.1% and the remaining activity at 50 µM was determined as 9.1%. On G9a (third data set of Table S2), the remaining activity at 0.0001 µM was determined as 31.7%, the remaining activity at 0.001 µM is 27.4%, the remaining activity at 0.01 µM is 16.8% and the remaining activity at 0.1 µM came to 11.9%. Moreover, at G9a (third data set of Table S2), the remaining activity at 1 µM was determined as 9.5%, the remaining activity at 10 µM worked out at 8.8% and the remaining activity at 50 µM worked out at 8.4%. On G9a, this compound came in with an IC50 of 5.8 nM.
Regarding `CC(C)c1nccn1C(C)C(=O)Nc1ccc(NC(=O)CN2CCCCC2)cc1` (centres unmarked) [I], the “motor index dose‐response profile (in words)” value in the assay with C. elegans strain CL2006 is “lowest motor index in the maximum and minimum dose tested”. On G9a (first data set of Table S2), this compound came in with a remaining activity at 0.0001 µM of 30.9%, a remaining activity at 0.001 µM of 24%, a remaining activity at 0.01 µM of 13.5% and a remaining activity at 0.1 µM of 8.2%. On G9a (first data set of Table S2), the remaining activity at 1 µM was 6.8%, the remaining activity at 10 µM is 6.6% and the remaining activity at 50 µM was 5.9%. Moreover, at G9a (second data set of Table S2), the remaining activity at 0.0001 µM turned out to be 29.3%, the remaining activity at 0.001 µM is 22.5%, the remaining activity at 0.01 µM is 12.8% and the remaining activity at 0.1 µM worked out at 9.3%. At G9a (second data set of Table S2), the remaining activity at 1 µM amounted to 7.3%, the remaining activity at 10 µM is 5.7% and the remaining activity at 50 µM stood at 4.8%. Besides, at G9a (third data set of Table S2), the remaining activity at 0.0001 µM came to 30.1%, the remaining activity at 0.001 µM was 23.2%, the remaining activity at 0.01 µM came out at 13.2% and the remaining activity at 0.1 µM was 8.7%. Further, at G9a (third data set of Table S2), the remaining activity at 1 µM turned out to be 7.1%, the remaining activity at 10 µM stood at 6.2% and the remaining activity at 50 µM worked out at 5.3%. Also, 3.9 nM corresponded to half-maximal inhibition against G9a (IC50).
